# From ChEMBL document CHEMBL4725351, “Cyclic Derivative of Host-Defense Peptide IDR-1018 Improves Proteolytic Stability, Suppresses Inflammation, and Enhances In Vivo Activity” (J Med Chem, 2020)
# Active and inactive are the calls of the source. The rule behind the calls is not given here.
# Tests used:
# [1] = target: T1, Trypsin (Homo sapiens, UniProt P07477+P07478+P35030); assay: Stability of the compound in pH 8.2 ammonium bicarbonate buffer assessed as trypsin (unknown origin)-mediated drug degradation at 20 ug/ml measured up to 120 mins by MALDI-TOF analysis; type: ADME, protein assay; settings: pH 8.2, 2 h, at 20 µg/mL
# [2] = test system: Pseudomonas aeruginosa; assay: Antibacterial activity against Pseudomonas aeruginosa PA14 measured after overnight incubation by microtitre plate based spectrophotometric method; type: functional
# [3] = test system: Acinetobacter baumannii; assay: Antibacterial activity against Acinetobacter baumannii 5015 measured after overnight incubation by microtitre plate based spectrophotometric method; type: functional
# [4] = target: T1, Trypsin; assay: Stability of the compound in pH 8.2 ammonium bicarbonate buffer assessed as trypsin (unknown origin)-mediated compound cleavage at carboxy-terminal side of arginine at 20 ug/ml measured within 30 mins by RP-HPLC analysis; type: ADME, protein assay; settings: pH 8.2, 0.5 h, at 20 µg/mL
# [5] = test system: PBMC; assay: Immunomodulatory activity in human PBMC assessed as increase in IL-1RA production at 25 ug/ml measured after overnight incubation by ELISA; type: functional, tissue-based; settings: dose 25.0 µg/ml
# [6] = test system: Klebsiella pneumoniae; assay: Antibacterial activity against Klebsiella pneumoniae ATTC 13883 measured after overnight incubation by microtitre plate based spectrophotometric method; type: functional
# [7] = test system: Acinetobacter baumannii; assay: Antibiofilm activity against 24 hrs preformed Acinetobacter baumannii 17918 biofilm assessed as reduction in biofilm viability at 7.2 to 30.3 uM by TTC assay relative to control; type: functional; settings: dose microM 7.2-30.3
# [8] = test system: Acinetobacter baumannii; assay: Antibacterial activity against Acinetobacter baumannii 17918 measured after overnight incubation by microtitre plate based spectrophotometric method; type: functional
# [9] = Toxicity in CD1 mouse assessed as precipitation under the skin at 10 mg/kg, sc measured after 16 hrs; type: organism-based; settings: in vivo
# [10] = test system: Escherichia coli; assay: Antibiofilm activity against 24 hrs preformed Escherichia coli ATTC 489 biofilm assessed as reduction in biofilm viability at 7.2 to 30.3 uM by TTC assay relative to control; type: functional; settings: dose microM 7.2-30.3
# [11] = test system: Pseudomonas aeruginosa; assay: Antibiofilm activity against Pseudomonas aeruginosa PA14 incubated for 24 hrs under shaking condition by turbidometric method; type: functional
# [12] = test system: Klebsiella pneumoniae; assay: Antibiofilm activity against 24 hrs preformed Klebsiella pneumoniae ATTC 13883 biofilm assessed as reduction in biofilm viability at 7.2 to 30.3 uM by TTC assay relative to control; type: functional; settings: dose microM 7.2-30.3
# [13] = Immunomodulatory activity in human PBMC assessed as increase in LPS-induced MCP1 production at 25 ug/ml measured after overnight incubation by ELISA; type: functional; settings: dose 25 µg/ml
# [14] = Aggregation property of the compound in 5% dextrose at 1 mg/ml by turbidimetric method; type: physicochemical
# [15] = test system: Staphylococcus aureus; assay: Antibacterial activity against methicillin-resistant Staphylococcus aureus USA300 LAC measured after overnight incubation by microtitre plate based spectrophotometric method; type: functional
# [16] = test system: Escherichia coli; assay: Antibacterial activity against Escherichia coli ATTC 489 measured after overnight incubation by microtitre plate based spectrophotometric method; type: functional
# [17] = test system: Escherichia coli; assay: Antibiofilm activity against Escherichia coli ATTC 489 incubated for 24 hrs under shaking condition by turbidometric method; type: functional
# [18] = test system: PBMC; assay: Immunomodulatory activity in human PBMC assessed as increase in MCP1 production at 25 ug/ml measured after overnight incubation by ELISA; type: functional, tissue-based; settings: dose 25.0 µg/ml
# [19] = target: T1, Trypsin; assay: Stability of the compound in pH 8.2 ammonium bicarbonate buffer assessed as trypsin (unknown origin)-ILPWK formation at 20 ug/ml measured within 30 mins by MALDI-TOF analysis; type: ADME, protein assay; settings: pH 8.2, 0.5 h, dose 20 µg/ml
# [20] = target: T1, Trypsin; assay: Stability of the compound in pH 8.2 ammonium bicarbonate buffer assessed as trypsin (unknown origin)-mediated drug degradation at 20 ug/ml measured up to 120 mins by RP-HPLC analysis; type: ADME, protein assay; settings: pH 8.2, 2 h, at 20 µg/mL
# [21] = target: T1, Trypsin; assay: Stability of the compound in pH 8.2 ammonium bicarbonate buffer assessed as trypsin (unknown origin)-mediated drug degradation at 20 ug/ml measured after 120 mins by RP-HPLC analysis; type: ADME, protein assay; settings: buffer, pH 8.2, 2 h, at 20 µg/mL
# [22] = test system: Klebsiella pneumoniae; assay: Antibiofilm activity against Klebsiella pneumoniae ATTC 13883 incubated for 24 hrs under shaking condition by turbidometric method; type: functional
# [23] = test system: Pseudomonas aeruginosa; assay: Antibacterial activity against Pseudomonas aeruginosa PAO1 measured after overnight incubation by microtitre plate based spectrophotometric method; type: functional
# [24] = Cytotoxicity against human PBMC assessed as reduction in cell viability at 100 ug/ml measured after 24 hrs by LDH assay; type: tissue-based; settings: dose 100 µg/ml
# [25] = Aggregation property of the compound in sodium citrate solution at 10 mM by turbidimetric method; type: physicochemical; settings: 10000 µM
# [26] = test system: Staphylococcus aureus; assay: Antibacterial activity against methicillin-resistant Staphylococcus aureus SAP0017 measured after overnight incubation by microtitre plate based spectrophotometric method; type: functional
# [27] = test system: Acinetobacter baumannii; assay: Antibiofilm activity against 24 hrs preformed Acinetobacter baumannii 5015 biofilm assessed as reduction in biofilm viability at 7.2 to 30.3 uM by TTC assay relative to control; type: functional; settings: dose microM 7.2-30.3
# [28] = test system: PBMC; assay: Immunomodulatory activity in human PBMC assessed as reduction in LPS-induced IL1beta production at 25 ug/ml measured after overnight incubation by ELISA; type: functional, tissue-based; settings: dose 25.0 µg/ml
# [29] = test system: Pseudomonas aeruginosa; assay: Antibiofilm activity against Pseudomonas aeruginosa PAO1 incubated for 24 hrs under shaking condition by turbidometric method; type: functional
# [30] = Aggregation property of the compound in sodium phosphate solution at 10 mM by turbidimetric method; type: physicochemical; settings: 10000 µM
# [31] = Aggregation property of the compound in sodium nitrate solution at 10 mM by turbidimetric method; type: physicochemical; settings: 10000 µM
# [32] = Aggregation property of the compound in saline at 1 mg/ml by turbidimetric method; type: physicochemical; settings: buffer
# [33] = test system: Staphylococcus aureus; assay: Antibiofilm activity against methicillin-resistant Staphylococcus aureus USA300 LAC incubated for 24 hrs under shaking condition by turbidometric method; type: functional
# [34] = test system: Acinetobacter baumannii; assay: Antibiofilm activity against Acinetobacter baumannii 17918 incubated for 24 hrs under shaking condition by turbidometric method; type: functional
# [35] = test system: Acinetobacter baumannii; assay: Antibiofilm activity against Acinetobacter baumannii 5015 incubated for 24 hrs under shaking condition by turbidometric method; type: functional
# [36] = test system: PBMC; assay: Immunomodulatory activity in human PBMC assessed as change in TNFalpha production at 25 ug/ml measured after overnight incubation by ELISA; type: functional, tissue-based; settings: dose 25.0 µg/ml
# [37] = test system: Pseudomonas aeruginosa; assay: Antibiofilm activity against 24 hrs preformed Pseudomonas aeruginosa PAO1 biofilm assessed as reduction in biofilm viability at 7.2 to 30.3 uM by TTC assay relative to control; type: functional; settings: dose microM 7.2-30.3
# [38] = Aggregation property of the compound in water at 1 mg/ml by turbidimetric method; type: physicochemical; settings: buffer
# [39] = test system: Staphylococcus aureus; assay: Antibacterial activity against Staphylococcus aureus USA300 LAC infected in CD1 mouse assessed as dermonecrosis area at 7.5 mg/kg, sc administered at infection site measured after 3 days by caliper method (Rvb > 75 mm2); type: functional; settings: time 3 day
# [40] = test system: Pseudomonas aeruginosa; assay: Antibiofilm activity against 24 hrs preformed Pseudomonas aeruginosa PA14 biofilm assessed as reduction in biofilm viability at 7.2 to 30.3 uM by TTC assay relative to control; type: functional; settings: dose microM 7.2-30.3
# [41] = Aggregation of the compound in human PBMC assessed as amorphous morphology at 50 ug/ml measured after 4 hrs by microscopic analysis; type: ADME, tissue-based; settings: dose 50 µg/ml
# [42] = test system: PBMC; assay: Immunomodulatory activity in human PBMC assessed as reduction in LPS-induced TNFalpha production at 25 ug/ml measured after overnight incubation by ELISA; type: functional, tissue-based; settings: dose 25.0 µg/ml
# [43] = Aggregation property of the compound in RPMI medium with 1% FBS at 1 mg/ml by turbidimetric method; type: physicochemical
substance,measurement,setting,value
H-VRLIVAVRIWRR-NH2,Stabilty,[1],Stable
same,MIC,[2],32.5 µM
same,MIC,[3],32.5 µM
same,Stabilty,[4],Unstable
same,Activity,[5],Active
same,MIC,[6],16.2 µM
same,Activity,[7],70%
same,MIC,[8],32.5 µM
same,Activity,[9],Toxic
same,Activity,[10],70%
same,MBEC,[11],16.2 µM
same,Activity,[12],70%
same,Activity,[13],35%
same,Activity,[14],Not Active
same,MIC,[15],32.5 µM
same,MIC,[16],65.8 µM
same,MBEC,[17],10.4 µM
same,Activity,[18],Active
same,Drug metabolism,[19],Metabolite_Detected
same,Stabilty,[20],Stable
same,Stabilty,[21],Unstable
same,MBEC,[22],10.4 µM
same,MIC,[23],32.5 µM
same,Activity,[24],Toxic
same,Activity,[25],Active
same,MIC,[26],32.5 µM
same,Activity,[27],70%
same,Activity,[28],Active
same,MBEC,[29],16.2 µM
same,Activity,[30],Active
same,Activity,[31],Active
same,Activity,[32],Not Active
same,MBEC,[33],7.8 µM
same,MBEC,[34],16.2 µM
same,MBEC,[35],16.2 µM
same,Activity,[36],inactive
same,Activity,[37],70%
same,Activity,[38],Not Active
same,Activity,[39],30 mm2
same,Activity,[40],70%
same,Activity,[41],Active
same,Activity,[42],Active
same,Activity,[43],Active
